This note sets out measurements from patent US8273686B2, “Method for combating phytopathogenic fungi” (priority 2006, dated 2012).

What all share (assay type): cell-based
The test system of test [1] is Phaeomoniella chlamydospora. Description: Microtitre test, growth inhibition (optical density 405 nm). The note with it: tested at 125, 31, 8, 2, 0.5 and 0.125 ppm a.i.; 7 and 14 days' incubation at 23° C. On the procedure:
(§1) The products were provided as technical quality active ingredient. Stock solutions of the active ingredients were prepared in DMSO at a concentration of 10 000 ppm a.i. All products were tested at 125, 31, 8, 2, 0.5 and 0.125 ppm a.i.; the DMSO concentration was the same in all dilutions.
(§2) Spore suspensions of the test fungi were prepared in a yeast extract, Bacto peptone and glycerol liquid medium.
(§3) Equal volumes of test compound and spore suspension were added, in triplicate, to the wells of 96-well microtitre plates. The optical densities of the wells were measured with the aid of a photometer at 405 nm immediately after preparation.
(§4) Incubation of the plates followed at 23° C. Further optical density measurements were made after 7 and 14 days' incubation. Growth in the treated wells was compared with the growth in the control (=water) wells.

Another test relates to Phaeoacremonium sp. The test can be described thus: Mycelium growth inhibition on PDA Petri dishes. The note with it: mean of 3 repetitions. The protocol:
(§5) Test pathogens were Phaeoacremonium sp., Phaemoniella chlamydospora and Fomitiporella vitis (pathogens associated with the Esca disease) as well as Cylindrocarpon destructans and Botryosphaeria sp. (pathogens frequently isolated from vine wood with Esca symptoms).
(§6) The concentrations of active ingredient added to the culture medium were determined previously by diffusion of the product in agar inoculated for the corresponding species.
(§7) Subsequently the diameters of the pathogen growths (mm) were determined visually until the […] (pathogen in PDA medium without fungicide) fully colonised the Petri dishes.
(§8) Levels of inhibition of mycelium growth for different fungal species in relation to fungicide concentration. The results are expressed as percentages and represent the mean of 3 repetitions

The subject of the next test is Botryosphaeria sp. Description: Mycelium growth inhibition on PDA Petri dishes. The note with it: mean of 3 repetitions. On the procedure: as §5, §6, §7, §8
Another test has as its system Fomitiporella vitis. The test can be described thus: Mycelium growth inhibition on PDA Petri dishes. To be noted: mean of 3 repetitions. On the procedure:
as §5, §6, §7, §8

Test [2] deals with Phaeomoniella chlamydospora. The test can be described thus: Mycelium growth inhibition on PDA Petri dishes. The note with it: mean of 3 repetitions. The protocol:
as §5, §6, §7, §8

Test [3] concerns Cylindrocarpon destructans. Description: Mycelium growth inhibition on PDA Petri dishes. To be noted: mean of 3 repetitions. The protocol:
as §5, §6, §7, §8

In another test the test system is Ganoderma sp. Description: Mycelium growth inhibition on PDA Petri dishes. The note with it: mean of 3 repetitions. On the procedure: as §6, §7, §8
Test [4] deals with Phaeoacremonium aleophilum. The test can be described thus: Microtitre test, growth inhibition (optical density 405 nm). To be noted: tested at 125, 31, 8, 2, 0.5 and 0.125 ppm a.i.; 7 and 14 days' incubation at 23° C. The protocol:
as §1, §2, §3, §4

[5] abbreviates: 0.1 ppm active ingredient (as Comet).
[6] abbreviates: 1 ppm active ingredient (as Comet).
The mark [7] stands for this setting: 10 ppm active ingredient (as Comet).
Where [8] appears, read: 100 ppm active ingredient (as Comet).
Where [9] appears, read: 1000 ppm active ingredient (as Comet).

On to `CO/N=C(/C(=O)OC)c1ccccc1COc1ccccc1C` [kresoxim-methyl], for which, in test [1], the “inhibition of the growth of Phaeomoniella chlamydospora” value is “strong to very strong”.

Regarding `COC(=O)N(OC)c1ccccc1COc1ccn(-c2ccc(Cl)cc2)n1` [pyraclostrobin], the Percentage mycelium inhibition with Phaeoacremonium sp. (setting [5]) was found to be 35.65%; in the test on Phaeoacremonium sp. (setting [6]), 61.00%; with Phaeoacremonium sp. (setting [7]) it was 77.27%; in the test on Phaeoacremonium sp. (setting [8]) it was 88.28%; with Phaeoacremonium sp. (setting [9]) it was 100.00%; in the test on Botryosphaeria sp. (setting [5]), 23.14%. In addition, the Percentage mycelium inhibition in the test with Botryosphaeria sp. (setting [6]) is reported as 48.04%; in the test with Botryosphaeria sp. (setting [7]) it was 66.08%; with Botryosphaeria sp. (setting [8]), 88.43%; with Botryosphaeria sp. (setting [9]), 100.00%; with Fomitiporella vitis (setting [5]), 46.47%; in the test on Fomitiporella vitis (setting [6]), 92.75%. The Percentage mycelium inhibition with Fomitiporella vitis (setting [7]) is 98.62%; in the test with Fomitiporella vitis (setting [8]), 100.00%; with Fomitiporella vitis (setting [9]) it was 100.00%; in test [2] (setting [5]), 64.91%; in test [2] (setting [6]) it was 93.57%; in test [2] (setting [7]), 95.32%. The Percentage mycelium inhibition in test [2] (setting [8]) came out at 96.49%; in test [2] (setting [9]) it was 100.00%; in test [3] (setting [5]), 33.33%; in test [3] (setting [6]) it was 69.61%; in test [3] (setting [7]), 86.67%; in test [3] (setting [8]), 90.59%. The Percentage mycelium inhibition in test [3] (setting [9]) stood at 100.00%; with Ganoderma sp. (setting [5]) it was 21.18%; in the test with Ganoderma sp. (setting [6]), 65.88%; in the test on Ganoderma sp. (setting [7]), 91.37%; with Ganoderma sp. (setting [8]) it was 100.00%; in the test with Ganoderma sp. (setting [9]) it was 100.00%. Further, the “inhibition of the growth of Phaeoacremonium aleophilum” value in test [4] was “strong to very strong”. For the same compound, the “inhibition of the growth of Phaeomoniella chlamydospora” value in test [1] was “strong to very strong”.
